Source: patent US9951065B2 (Gilead Sciences, Inc., priority 2015, dated 2018)

Molecular target: T1, IDO1 (Homo sapiens, UniProt P14902)
T1 construct: HeLa cells were treated with a test compound in the presence of IFNγ, which induces IDO1 expression; host or cells: H1-HeLa cells, IDO1 induced with IFNγ
Assay: Cell-based (HeLa) assay for measurement of IDO1 inhibition (kynurenine levels in supernatant after IFNγ induction)
Conditions: HeLa cells, geometric mean of a minimum of four determinations
Summary of the method: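 HeLa cells, 1,250 per well, treated with compound (0.5% DMSO final) plus IFNγ to induce IDO1, for 48 h. Supernatant kynurenine measured by TCA hydrolysis at 60 °C, then p-dimethylaminobenzaldehyde, absorbance 480 nm. EC50 from a four-parameter fit normalized to −/+IFNγ controls; geometric mean of at least four runs.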

[1] = IFNγ-induced IDO1, kynurenine in supernatant after 48 hour incubation
[2] = IFNγ-induced IDO1, kynurenine in supernatant, 48 hour incubation

T1 sequence (P14902 whole entry): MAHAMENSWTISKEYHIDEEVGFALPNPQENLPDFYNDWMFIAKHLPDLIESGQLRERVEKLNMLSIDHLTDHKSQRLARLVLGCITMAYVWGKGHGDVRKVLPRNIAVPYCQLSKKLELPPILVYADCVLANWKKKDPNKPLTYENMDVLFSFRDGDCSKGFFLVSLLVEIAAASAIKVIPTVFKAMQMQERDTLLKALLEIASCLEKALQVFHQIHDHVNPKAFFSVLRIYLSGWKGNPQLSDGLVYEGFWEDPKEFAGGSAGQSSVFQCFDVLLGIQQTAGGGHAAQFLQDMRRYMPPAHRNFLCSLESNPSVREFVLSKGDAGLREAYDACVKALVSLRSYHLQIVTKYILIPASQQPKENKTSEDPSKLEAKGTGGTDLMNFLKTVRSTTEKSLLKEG

Compound	EC50 [1]	EC50 [2]
Nc1nc2c(F)ccc(/C(=N/O)Nc3cccc(Cl)c3)c2[nH]1 [Example 20, 2-Amino-N-(3-chlorophenyl)-4-fluoro-N′-hydroxy-1H-benzo[d]imidazole-7-carboximidamide]	0.404 µM	–
O/N=C(\Nc1ccc(F)c(Cl)c1)c1cc(F)c(F)c2nc(N[C@H]3CCCNC3)[nH]c12 [Example 445, (S)—N-(3-chloro-4-fluorophenyl)-4,5-difluoro-N′-hydroxy-2-(piperidin-3-ylamino)-1H-benzo[d]imidazole-7-carboximidamide]	–	1.95 µM
NC1(CNc2nc3nccc(/C(=N/O)Nc4ccc(F)c(Cl)c4)c3[nH]2)CC1 [Example 241, 2-(((1-aminocyclopropyl)methyl)amino)-N-(3-chloro-4-fluorophenyl)-N′-hydroxy-1H-imidazo[4,5-b]pyridine-7-carboximidamide]	1.37 µM	–
Cn1ccnc1CNc1nc2c(F)c(F)cc(/C(=N/O)Nc3ccc(F)c(Cl)c3)c2[nH]1 [Example 349, N-(3-chloro-4-fluorophenyl)-4,5-difluoro-N′-hydroxy-2-(((1-methyl-1H-imidazol-2-yl)methyl)amino)-1H-benzo[d]imidazole-7-carboximidamide]	–	2.54 µM
COCCNCCc1nc2nccc(/C(=N/O)Nc3ccc(F)c(Cl)c3)c2[nH]1 [Example 190, N-(3-Chloro-4-fluorophenyl)-N′-hydroxy-2-(2-((2-methoxyethyl)amino)ethyl)-1H-imidazo[4,5-b]pyridine-7-carboximidamide]	1.51 µM	–
O/N=C(\Nc1ccc(F)c(Cl)c1)c1ccc(F)c2nc(NCCN3CCCC3)[nH]c12 [Example 376, N-(3-chloro-4-fluorophenyl)-4-fluoro-N′-hydroxy-2-((2-(pyrrolidin-1-yl)ethyl)amino)-1H-benzo[d]imidazole-7-carboximidamide]	–	1.26 µM
CN1[C@@H]2CCC(Nc3nc4c(F)c(F)cc(/C(=N/O)Nc5ccc(F)c(Cl)c5)c4[nH]3)[C@H]1CC2 (stereo partly drawn) [Example 469, N-(3-chloro-4-fluorophenyl)-4,5-difluoro-N′-hydroxy-2-(((1R,5R)-8-methyl-8-azabicyclo[3.2.1]octan-2-yl)amino)-1H-benzo[d]imidazole-7-carboximidamide]	–	0.959 µM
CC(C)(C)OC(=O)NCCc1nc2c(F)c(F)cc(/C(=N/O)Nc3ccc(F)c(Cl)c3)c2[nH]1 [Example 213, tert-butyl (2-(7-(N-(3-chloro-4-fluorophenyl)-N′-hydroxycarbamimidoyl)-4,5-difluoro-1H-benzo[d]imidazol-2-yl)ethyl)carbamate]	3.62 µM	–
CN(C)CCCNc1nc2cc(F)cc(/C(=N/O)Nc3ccc(F)c(Cl)c3)c2[nH]1 [Example 389, N-(3-chloro-4-fluorophenyl)-2-((3-(dimethylamino)propyl)amino)-5-fluoro-N′-hydroxy-1H-benzo[d]imidazole-7-carboximidamide]	–	1.16 µM
O/N=C(\Nc1cccc(Br)c1)c1ccnc2nc(NCCN3CCOCC3)[nH]c12 [Example 306, N-(3-bromophenyl)-N′-hydroxy-2-((2-morpholinoethyl)amino)-1H-imidazo[4,5-b]pyridine-7-carboximidamide]	–	0.681 µM
Nc1nc2c(F)c(F)cc(/C(=N/O)Nc3ccc(F)c(Cl)c3)c2[nH]1 [Example 13, 2-Amino-N-(3-chloro-4-fluorophenyl)-4,5-difluoro-N′-hydroxy-1H-benzo[d]imidazole-7-carboximidamide]	2.74 µM	–
O/N=C(\Nc1ccc(F)c(Br)c1)c1ccnc2nc(NCCN3CCOCC3)[nH]c12 [Example 238, N-(3-bromo-4-fluorophenyl)-N′-hydroxy-2-((2-morpholinoethyl)amino)-1H-imidazo[4,5-b]pyridine-7-carboximidamide]	0.853 µM	–
OCCc1nc2nccc(/C(=N/O)Nc3ccc(F)c(Cl)c3)c2[nH]1 [Example 183, N-(3-Chloro-4-fluorophenyl)-N′-hydroxy-2-(2-hydroxyethyl)-1H-imidazo[4,5-b]pyridine-7-carboximidamide]	2.4 µM	–
O/N=C(\Nc1ccc(F)c(Cl)c1)c1ccnc2nc(CNCC3CC3)[nH]c12 [Example 117, N-(3-Chloro-4-fluorophenyl)-2-(((cyclopropylmethyl)amino)methyl)-N′-hydroxy-1H-imidazo[4,5-b]pyridine-7-carboximidamide]	0.765 µM	–
O/N=C(\Nc1ccc(F)c(Cl)c1)c1cc(F)c(F)c2nc(NCc3cccnc3)[nH]c12 [Example 343, N-(3-chloro-4-fluorophenyl)-4,5-difluoro-N′-hydroxy-2-((pyridin-3-ylmethyl)amino)-1H-benzo[d]imidazole-7-carboximidamide]	–	3.86 µM
CC(CNc1nc2c(F)c(F)cc(/C(=N/O)Nc3ccc(F)c(Cl)c3)c2[nH]1)CN(C)C (centres unmarked) [Example 352, N-(3-chloro-4-fluorophenyl)-2-((3-(dimethylamino)-2-methylpropyl)amino)-4,5-difluoro-N′-hydroxy-1H-benzo[d]imidazole-7-carboximidamide]	–	0.437 µM

Compound	EC50 [1]	EC50 [2]
CN(C)CCc1nc2nccc(/C(=N/O)Nc3ccc(F)c(Br)c3)c2[nH]1 [Example 263, N-(3-bromo-4-fluorophenyl)-2-(2-(dimethylamino)ethyl)-N′-hydroxy-1H-imidazo[4,5-b]pyridine-7-carboximidamide]	0.559 µM	–
O/N=C(\Nc1ccc(F)c(Cl)c1)c1ccnc2nc(CNCc3cccnc3)[nH]c12 [Example 126, N-(3-Chloro-4-fluorophenyl)-N′-hydroxy-2-(((pyridin-3-ylmethyl)amino)methyl)-1H-imidazo[4,5-b]pyridine-7-carboximidamide]	2.28 µM	–
NCCc1nc2nccc(/C(=N/O)Nc3ccc(F)c(Cl)c3)c2[nH]1 [Example 189, 2-(2-Aminoethyl)-N-(3-chloro-4-fluorophenyl)-N′-hydroxy-1H-imidazo[4,5-b]pyridine-7-carboximidamide]	1.78 µM	–
CNC(C)Cc1nc2nccc(/C(=N/O)Nc3ccc(F)c(Cl)c3)c2[nH]1 (centres unmarked) [Example 327, N-(3-chloro-4-fluorophenyl)-N′-hydroxy-2-(2-(methylamino)propyl)-1H-imidazo[4,5-b]pyridine-7-carboximidamide]	–	7.62 µM
CC(C)NCc1nc2nccc(/C(=N/O)Nc3ccc(F)c(Cl)c3)c2[nH]1 [Example 116, N-(3-Chloro-4-fluorophenyl)-N′-hydroxy-2-((isopropylamino)methyl)-1H-imidazo[4,5-b]pyridine-7-carboximidamide]	0.74 µM	–
CN(C)CCCNc1nc2c(F)c(F)cc(/C(=N/O)Nc3ccc(F)c(Br)c3)c2[nH]1 [Example 387, N-(3-bromo-4-fluorophenyl)-2-((3-(dimethylamino)propyl)amino)-4,5-difluoro-N′-hydroxy-1H-benzo[d]imidazole-7-carboximidamide]	–	0.692 µM
NS(=O)(=O)NCCNc1nc2c(F)c(F)cc(/C(=N/O)Nc3ccc(F)c(Cl)c3)c2[nH]1 [Example 338, N-(3-chloro-4-fluorophenyl)-4,5-difluoro-N′-hydroxy-2-((2-(sulfamoylamino)ethyl)amino)-1H-benzo[d]imidazole-7-carboximidamide]	–	> 10 µM
O/N=C(\Nc1ccc(F)c(Cl)c1)c1ccnc2nc(NCc3ncccn3)[nH]c12 [Example 494, N-(3-chloro-4-fluorophenyl)-N′-hydroxy-2-((pyrimidin-2-ylmethyl)amino)-1H-imidazo[4,5-b]pyridine-7-carboximidamide]	–	> 10 µM
CNc1nc2nccc(/C(=N/O)Nc3ccc(F)c(Br)c3)c2[nH]1 [Example 257, N-(3-bromo-4-fluorophenyl)-N′-hydroxy-2-(methylamino)-1H-imidazo[4,5-b]pyridine-7-carboximidamide]	0.241 µM	–
O/N=C(\Nc1ccc(F)c(Cl)c1)c1ccnc2nc(NCCN3CCCCC3)[nH]c12 [Example 222, N-(3-chloro-4-fluorophenyl)-N′-hydroxy-2-((2-(piperidin-1-yl)ethyl)amino)-1H-imidazo[4,5-b]pyridine-7-carboximidamide]	1.52 µM	–
CC(C)NCCc1nc2nccc(/C(=N/O)Nc3ccc(F)c(Cl)c3)c2[nH]1 [Example 205, N-(3-chloro-4-fluorophenyl)-N′-hydroxy-2-(2-(isopropylamino)ethyl)-3H-imidazo[4,5-b]pyridine-7-carboximidamide]	2.82 µM	–
CC(C)(C)CNCc1nc2nccc(/C(=N/O)Nc3ccc(F)c(Cl)c3)c2[nH]1 [Example 141, N-(3-Chloro-4-fluorophenyl)-N′-hydroxy-2-((neopentylamino)methyl)-1H-imidazo[4,5-b]pyridine-7-carboximidamide]	1.68 µM	–
CN1CCC[C@@H](Nc2nc3c(F)c(F)cc(/C(=N/O)Nc4cccc(Cl)c4)c3[nH]2)C1 [Example 460, (R)—N-(3-chlorophenyl)-4,5-difluoro-N′-hydroxy-2-((1-methylpiperidin-3-yl)amino)-1H-benzo[d]imidazole-7-carboximidamide]	–	0.193 µM
CC(C)Nc1nc2nccc(/C(=N/O)Nc3ccc(F)c(Cl)c3)c2[nH]1 [Example 165, N-(3-Chloro-4-fluorophenyl)-N′-hydroxy-2-(isopropylamino)-1H-imidazo[4,5-b]pyridine-7-carboximidamide]	0.705 µM	–
CS(=O)(=O)NCCNc1nc2nccc(/C(=N/O)Nc3ccc(F)c(Cl)c3)c2[nH]1 [Example 405, N-(3-chloro-4-fluorophenyl)-N′-hydroxy-2-((2-(methylsulfonamido)ethyl)amino)-1H-imidazo[4,5-b]pyridine-7-carboximidamide]	–	7.11 µM
O=S1(=O)CCN(CCNc2nc3nccc(/C(=N/O)Nc4ccc(F)c(Cl)c4)c3[nH]2)CC1 [Example 218, N-(3-chloro-4-fluorophenyl)-2-((2-(1,1-dioxidothiomorpholino)ethyl)amino)-N′-hydroxy-1H-imidazo[4,5-b]pyridine-7-carboximidamide]	> 10 µM	–
